The values below come from patent US11319299B2, “Substituted carboxamides as inhibitors of WDR5 protein-protein binding” (PROPELLON THERAPEUTICS INC., priority 2016, dated 2022).

The first experiment addresses WDR5 (Homo sapiens (Human), UniProt P61964). Put plainly: Surface Plasmon Resonance (SPR) assay, KD and residence time. To be noted: surface plasmon resonance (SPR) assay; read-out: WDR5 binding affinity (KD). The class given is binding.
With `Cc1nc(C(F)(F)F)c(C(=O)Nc2cc(-c3cnc(N4CCOCC4)nc3)c(F)cc2N2CCN(C)C(C)C2)s1` (stereo in doubt) [Example 199, N-[4-fluoro-5-(2-morpholin-4-ylpyrimidin-5-yl)-2-[(3R)-3,4-dimethylpiperazin-1-yl]phenyl]-2-methyl-4-(trifluoromethyl)-1,3-thiazole-5-carboxamide], the Kd worked out at 23.4 nM.
On to `C[C@@H]1CN(c2cc(F)c(-c3cc(Cl)c(O)c(C#N)c3)cc2NC(=O)c2c[nH]c(=O)cc2C(F)(F)F)C[C@H](C)N1C` [Example 98, N-[5-(3-chloro-5-cyano-4-hydroxyphenyl)-4-fluoro-2-[(3R,5S)-3,4,5-trimethylpiperazin-1-yl]phenyl]-6-oxo-4-(trifluoromethyl)-1H-pyridine-3-carboxamide], for which the dissociation constant (Kd) is 19.5 nM.
Consider `C[C@@H]1CN(c2cc(F)c(C3=CCN(c4ncc(C=O)cn4)CC3)cc2NC(=O)c2c[nH]c(=O)cc2C(F)(F)F)C[C@H](C)N1C` [Example 369, N-[4-fluoro-5-[1-(5-formylpyrimidin-2-yl)-3,6-dihydro-2H-pyridin-4-yl]-2-[(3R,5S)-3,4,5-trimethylpiperazin-1-yl]phenyl]-6-oxo-4-(trifluoromethyl)-1H-pyridine-3-carboxamide], for which the Kd is 0.685 nM.
With `CCC(C)N1CC=C(c2cc(NC(=O)c3c[nH]c(=O)cc3C(F)(F)F)c(N3C[C@@H](C)N(C)[C@@H](C)C3)cc2F)CC1` (stereo partly drawn) [Example 233, N-[5-(1-butan-2-yl-3,6-dihydro-2H-pyridin-4-yl)-4-fluoro-2-[(3R,5S)-3,4,5-trimethylpiperazin-1-yl]phenyl]-6-oxo-4-(trifluoromethyl)-1H-pyridine-3-carboxamide], the dissociation constant Kd was 3.89 nM.
For the compound `C[C@@H]1CN(c2cc(F)c(C3=CCNCC3)cc2NC(=O)c2c[nH]c(=O)cc2C(F)(F)F)C[C@H](C)N1C` [Example 95, N-[4-fluoro-2-[(3R,5S)-3,4,5-trimethylpiperazin-1-yl]-5-(1,2,3,6-tetrahydropyridin-4-yl)phenyl]-6-oxo-4-(trifluoromethyl)-1H-pyridine-3-carboxamide], the Kd worked out at 7.18 nM.
For the compound `C[C@@H]1CN(c2cc(F)c(-c3cnc(N4CCOCC4)nc3)cc2NC(=O)c2cc(Cl)cc(Cl)c2)C[C@H](C)N1C` [Example 76, 3,5-dichloro-N-[4-fluoro-5-(2-morpholin-4-ylpyrimidin-5-yl)-2-[(3R,5S)-3,4,5-trimethylpiperazin-1-yl]phenyl]benzamide], the Kd was determined as 2.07 nM.
Same read-out and setting: as for `C[C@@H]1CN(c2ncc(-c3cc(NC(=O)c4c[nH]c(=O)cc4C(F)F)c(N4CCN(C)[C@@H](C)C4)cc3F)cn2)CCO1` [Example 396, 4-(difluoromethyl)-N-[4-fluoro-2-[(3S)-3,4-dimethylpiperazin-1-yl]-5-[2-[(2R)-2-methylmorpholin-4-yl]pyrimidin-5-yl]phenyl]-6-oxo-1H-pyridine-3-carboxamide], the figure is 0.564 nM; as for `CC1CN(c2cc(F)c(-c3cnc(N4CC(C)(C)OC(C)(C)C4)nc3)cc2NC(=O)c2c[nH]c(=O)cc2C(F)(F)F)CCN1C` (stereo in doubt) [Example 319, N-[4-fluoro-2-[(3R)-3,4-dimethylpiperazin-1-yl]-5-[2-(2,2,6,6-tetramethylmorpholin-4-yl)pyrimidin-5-yl]phenyl]-6-oxo-4-(trifluoromethyl)-1H-pyridine-3-carboxamide], 1.61 nM; as for `C[C@@H]1CN(c2cc(F)c(-c3cnc(N4CCOCC4)nc3)cc2NC(=O)c2sccc2C(F)(F)F)C[C@H](C)N1C` [Example 211, N-[4-fluoro-5-(2-morpholin-4-ylpyrimidin-5-yl)-2-[(3R,5S)-3,4,5-trimethylpiperazin-1-yl]phenyl]-3-(trifluoromethyl)thiophene-2-carboxamide], 120 nM.
Regarding `C[C@@H]1CN(c2cc(F)c(C3=CCN(C4CCN(C)CC4)CC3)cc2NC(=O)c2c[nH]c(=O)cc2C(F)(F)F)C[C@H](C)N1C` [Example 242, N-[4-fluoro-5-[1-(1-methylpiperidin-4-yl)-3,6-dihydro-2H-pyridin-4-yl]-2-[(3R,5S)-3,4,5-trimethylpiperazin-1-yl]phenyl]-6-oxo-4-(trifluoromethyl)-1H-pyridine-3-carboxamide], the Kd was determined as 3.49 nM.
Still for that read-out and setting: as for `C[C@@H]1CN(c2cc(F)c(-c3cnc(N4CCOCC4)nc3)cc2NC(=O)c2cc(C(F)(F)F)[nH]n2)C[C@H](C)N1C` [Example 321, N-[4-fluoro-5-(2-morpholin-4-ylpyrimidin-5-yl)-2-[(3R,5S)-3,4,5-trimethylpiperazin-1-yl]phenyl]-5-(trifluoromethyl)-1H-pyrazole-3-carboxamide], the figure is 63.1 nM; as for `C[C@@H]1CN(c2cc(F)c(C3=CCN(c4ccccn4)CC3)cc2NC(=O)c2c[nH]c(=O)cc2C(F)(F)F)C[C@H](C)N1C` [Example 270, N-[4-fluoro-5-(1-pyridin-2-yl-3,6-dihydro-2H-pyridin-4-yl)-2-[(3R,5S)-3,4,5-trimethylpiperazin-1-yl]phenyl]-6-oxo-4-(trifluoromethyl)-1H-pyridine-3-carboxamide], 0.938 nM; as for `C[C@@H]1CN(c2cc(F)c(-c3cncc(C(=O)NC(C)(C)C)c3)cc2NC(=O)c2c[nH]c(=O)cc2C(F)(F)F)C[C@H](C)N1C` [Example 174, N-[5-[5-(tert-butylcarbamoyl)pyridin-3-yl]-4-fluoro-2-[(3R,5S)-3,4,5-trimethylpiperazin-1-yl]phenyl]-6-oxo-4-(trifluoromethyl)-1H-pyridine-3-carboxamide], 1.53 nM.

The same experiment, now with this note: surface plasmon resonance (SPR); read-out: WDR5 binding affinity (KD).
As to `C[C@@H]1CN(c2cc(F)c(C3=CCN(c4ncc(C#N)cn4)CC3)cc2NC(=O)c2c[nH]c(=O)cc2C(F)(F)F)C[C@H](C)N1C` [Example 404, N-[5-[1-(5-cyanopyrimidin-2-yl)-3,6-dihydro-2H-pyridin-4-yl]-4-fluoro-2-[(3R,5S)-3,4,5-trimethylpiperazin-1-yl]phenyl]-6-oxo-4-(trifluoromethyl)-1H-pyridine-3-carboxamide], the dissociation constant (Kd) is 1 nM.
For the compound `C[C@@H]1CN(c2ccc(-c3cc(NC(=O)c4cn(C)c(=O)cc4C(F)F)c(N4CCN(C)[C@@H](C)C4)cc3F)cn2)CCO1` [Example 516, 4-(difluoromethyl)-N-[4-fluoro-2-[(3S)-3,4-dimethylpiperazin-1-yl]-5-[6-[(2R)-2-methylmorpholin-4-yl]pyridin-3-yl]phenyl]-1-methyl-6-oxopyridine-3-carboxamide], the Kd stood at 4 nM.
The same measure, in the same setting: as for `C[C@@H]1CN(c2cc(F)c(-c3ccnc(NC4CCCCC4)n3)cc2NC(=O)c2c[nH]c(=O)cc2C(F)(F)F)C[C@H](C)N1C` [Example 537, N-[5-[2-(cyclohexylamino)pyrimidin-4-yl]-4-fluoro-2-[(3R,5S)-3,4,5-trimethylpiperazin-1-yl]phenyl]-6-oxo-4-(trifluoromethyl)-1H-pyridine-3-carboxamide], the figure is 0.944 nM.
The same measure, in the same setting: the result for `CC1CN(c2cc(F)c(C3=CCCN(c4ncc(C=O)cn4)C3)cc2NC(=O)c2ccc(F)cc2C(F)(F)F)CCN1C` (stereo in doubt) [Example 650, 4-fluoro-N-[4-fluoro-5-[1-(5-formylpyrimidin-2-yl)-3,6-dihydro-2H-pyridin-5-yl]-2-[(3R)-3,4-dimethylpiperazin-1-yl]phenyl]-2-(trifluoromethyl)benzamide] reads 5.18 nM.
On the same count and under the same terms, as for `C[C@@H]1CN(c2cc(F)c(C3=CCN(C(=O)N4CCCC4)C3)cc2NC(=O)c2c[nH]c(=O)cc2C(F)(F)F)C[C@H](C)N1C` [Example 441, N-[4-fluoro-5-[1-(pyrrolidine-1-carbonyl)-2,5-dihydropyrrol-3-yl]-2-[(3R,5S)-3,4,5-trimethylpiperazin-1-yl]phenyl]-6-oxo-4-(trifluoromethyl)-1H-pyridine-3-carboxamide], the figure is 1.91 nM.
Consider `C[C@@H]1CN(c2cc(F)c(-c3cc(C(=O)NC(C)(C)CC(C)(C)C)c(F)cc3F)cc2NC(=O)c2c[nH]c(=O)cc2C(F)(F)F)C[C@H](C)N1C` [Example 626, N-[5-[2,4-difluoro-5-(2,4,4-trimethylpentan-2-ylcarbamoyl)phenyl]-4-fluoro-2-[(3R,5S)-3,4,5-trimethylpiperazin-1-yl]phenyl]-6-oxo-4-(trifluoromethyl)-1H-pyridine-3-carboxamide], for which the Kd was 5.24 nM.
On to `C[C@@H]1CN(c2cc(F)c(-c3nc(CN4CCOCC4)cs3)cc2NC(=O)c2cn(C)c(=O)cc2C(F)F)C[C@H](C)N1C` [Example 741, 4-(difluoromethyl)-N-[4-fluoro-5-[4-(morpholin-4-ylmethyl)-1,3-thiazol-2-yl]-2-[(3R,5S)-3,4,5-trimethylpiperazin-1-yl]phenyl]-1-methyl-6-oxopyridine-3-carboxamide], for which the Kd turned out to be 6.75 nM.
For the compound `C[C@@H]1CN(c2cc(F)c(C3=CCN(C(=O)C4CCCCC4)CC3)cc2NC(=O)c2c[nH]c(=O)cc2C(F)(F)F)C[C@H](C)N1C` [Example 569, N-[5-[1-(cyclohexanecarbonyl)-3,6-dihydro-2H-pyridin-4-yl]-4-fluoro-2-[(3R,5S)-3,4,5-trimethylpiperazin-1-yl]phenyl]-6-oxo-4-(trifluoromethyl)-1H-pyridine-3-carboxamide], the Kd is 1.99 nM.
Regarding `CC1CN(c2cc(F)c(-c3ccnc(N4CCOCC4)n3)cc2NC(=O)c2cn(C)c(=O)cc2C(F)F)CCN1C` (stereo in doubt) [Example 664, 4-(difluoromethyl)-N-[4-fluoro-5-(2-morpholin-4-ylpyrimidin-4-yl)-2-[(3R)-3,4-dimethylpiperazin-1-yl]phenyl]-1-methyl-6-oxopyridine-3-carboxamide], the Kd came out at 2.68 nM.
For the compound `CC1CN(c2cc(F)c(C3=CCN(c4ncc(C#N)s4)CC3)cc2NC(=O)c2c[nH]c(=O)cc2C(F)F)CCN1C` (stereo in doubt) [Example 686, N-[5-[1-(5-cyano-1,3-thiazol-2-yl)-3,6-dihydro-2H-pyridin-4-yl]-4-fluoro-2-[(3R)-3,4-dimethylpiperazin-1-yl]phenyl]-4-(difluoromethyl)-6-oxo-1H-pyridine-3-carboxamide], the Kd stood at 1.99 nM.
Regarding `CC1CN(c2cc(F)c(C3=CCCN(c4ncccn4)C3)cc2NC(=O)c2ccc(F)cc2C(F)(F)F)CCN1C` (stereo in doubt) [Example 649, 4-fluoro-N-[4-fluoro-5-(1-pyrimidin-2-yl-3,6-dihydro-2H-pyridin-5-yl)-2-[(3R)-3,4-dimethylpiperazin-1-yl]phenyl]-2-(trifluoromethyl)benzamide], the Kd turned out to be 1.87 nM.
